Measurements published in publication PMC12487869, “Toward Imaging of the GABA Transporter Type 1 In Vivo: Quantitative Evaluation of 4 Novel PET Radiotracers in Nonhuman Primates” (Journal of Nuclear Medicine, 2025).
“And” between values parts separate entries of the source, which are not always exact repeats. Equal values may be shown once.

Experiments:
[1] = Plasma tiagabine concentration by mass spectrometry; assay type: in vivo, rhesus monkeys (Macaca mulatta); conditions: 0.5 mg/kg tiagabine i.v.; 30–190 min after tiagabine injection
Protocol: For 8 of the 10 blocking scans, venous blood samples were acquired at 30, 60, 90, 120, 160, and 190 min after injection of tiagabine, in addition to 1 control sample before tiagabine injection, to measure its concentration using mass spectrometry (described in the supplemental materials).

[2] = parameters: method as in PMID 9530548; conditions: humans, 24-mg single oral dose; cited from earlier work
[3] = test system: GAT-1; parameters: method as in PMID 10642842; conditions: in vitro, human brain postmortem; cited from earlier work
[4] = test system: GABA; conditions: vervet brain in vivo; cited from earlier work
[5] = test system: GABAA receptor α5 subtype; parameters: method as in PMID 30102960, PMID 32578977; conditions: cited from earlier work
[6] = Plasma free fraction (fp), ultrafiltration method; assay type: in vitro ADME, rhesus monkeys (Macaca mulatta); conditions: measured in triplicate per scan, mean ± SD
Protocol: The plasma free fraction (fp) for each scan was measured in triplicate using the ultrafiltration method and calculated as the ratio of radioactivity in the filtrate to that in the plasma ([24]).

[7] = Metabolite analysis of arterial plasma (unmetabolized parent fraction), column-switching HPLC; assay type: in vivo, rhesus monkeys (Macaca mulatta); conditions: mean ± SD
Protocol: Arterial blood samples were collected for each scan to measure the input function. Metabolite analysis was performed using an automatic column-switching high-performance liquid chromatography system ([22]) for 7 arterial blood samples collected at 5, 15, 30, 60, 90, 120, and 180 min. The radiometabolite-corrected arterial plasma input function was obtained by calculating the product of the fitted total plasma (fitted with a sum of exponentials) and unmetabolized parent fraction curves (using an integrated γ-function ([23])).

[8] = target: T1, GAT-1 (Macaca mulatta, UniProt H9ELS5); test: PET brain imaging with kinetic modeling (1TCM), baseline and tiagabine blocking scans; assay type: in vivo, rhesus monkeys (Macaca mulatta); conditions: for Median VT across ROIs: 1TCM
T1 construct: from tissue; host or cells: brain of living rhesus monkeys (in vivo PET)
Protocol: Twenty scans were acquired from 4 rhesus monkeys (Macaca mulatta). Each monkey underwent baseline and blocking scans with ^18F-GATT-31, ^18F-GATT-34, ^18F-GATT-39, or ^18F-GATT-44 (Fig. 1) on a Focus-220 small-animal PET scanner (Siemens Healthineers).
(§1) Before each scan, each monkey was sedated with alfaxalone (2 mg/kg), midazolam (0.3 mg/kg), and dexmedetomidine (0.01 mg/kg), and anesthesia was maintained with 1.5%–2.5% isoflurane. Heart rate, blood pressure, respiration rate, and oxygen saturation were monitored continuously. An intravenous line was placed in the saphenous or cephalic vein for delivery of the radiotracer, as well as tiagabine during blocking studies (0.5 mg/kg administered 19 ± 4 min before radiotracer injections). A catheter was placed in the radial or tibial artery for blood sampling.
Before injection, a transmission scan was acquired. Starting with injection of the radiotracer, PET emission data were acquired in list-mode format and binned into 45 frames (6 × 30 s, 3 × 1 min, 2 × 2 min, and 34 × 5 min).
For region-of-interest (ROI) definition, each PET image was registered to an in-house rhesus monkey anatomical MRI template using the concatenation of a rigid-body transformation between the summed PET image (0–10 min) and corresponding monkey’s MRI (using the FMRIB Linear Image Registration Tool) and a nonlinear transformation matrix estimated between the monkey’s MRI and the MRI template (BioImage Suite software version 3.01). Regional time–activity curves were extracted for the following 11 ROIs: brain stem, caudate, cerebellum, cingulate cortex, frontal cortex, hippocampus, insula, occipital cortex, putamen, temporal cortex, and thalamus.
For each baseline and blocking scan, kinetic analysis was performed using a 1-tissue compartment model (1TCM), a reversible 2-tissue compartment model (2TCM; k4 > 0), and an irreversible 2-tissue compartment model (2TiCM; k4 = 0), including a blood volume fraction (Vb) term and a time-delay term. Vb was estimated for each time–activity curve using the whole-blood curve fitted with a sum of exponentials. The time delay (Δt) between the input function and the brain was estimated by fitting the first 10 min of the whole-brain time–activity curve to a 1TCM with 3 parameters: K1, Vb, and Δt (k2 was set to 0 because of the negligible radiotracer washout during the first 10 min). This estimated time delay value was then used in the time–activity curve fits. The primary parameters of interest were the influx constant (K1, expressed in microliters per minute per cubic centimeter, since values were low), the volume of distribution (VT, expressed in milliliters per cubic centimeter), and the net influx constant (Ki, expressed in milliliters per minute per cubic centimeter) for 2TiCM.

[9] = target: T1, GAT-1; test: Occupancy plots from baseline and tiagabine blocking PET scans (occupancy, VND, BPND); assay type: in vivo, rhesus monkeys (Macaca mulatta); conditions: for VND: occupancy plot; for Occupancy: tiagabine 0.5 mg/kg occupancy measured with this radiotracer
Protocol: as §1
Occupancy plots ([26]) were used to estimate tiagabine occupancy and the nondisplaceable volume of distribution (VND). This VND value was used to compute the nondisplaceable binding potential (BPND = VT/VND − 1). To compare the performance between 2 radiotracers, a Guo plot ([27]) was created, using baseline VT values, to assess the relative affinity and BPND values of each radiotracer.

[10] = target: P-glycoprotein (PgP) (Homo sapiens, UniProt P08183); test: Efflux by P-glycoprotein; assay type: in vitro ADME
[11] = after blocking with tiagabine 0.5 mg/kg

T1 sequence (H9ELS5 1-599): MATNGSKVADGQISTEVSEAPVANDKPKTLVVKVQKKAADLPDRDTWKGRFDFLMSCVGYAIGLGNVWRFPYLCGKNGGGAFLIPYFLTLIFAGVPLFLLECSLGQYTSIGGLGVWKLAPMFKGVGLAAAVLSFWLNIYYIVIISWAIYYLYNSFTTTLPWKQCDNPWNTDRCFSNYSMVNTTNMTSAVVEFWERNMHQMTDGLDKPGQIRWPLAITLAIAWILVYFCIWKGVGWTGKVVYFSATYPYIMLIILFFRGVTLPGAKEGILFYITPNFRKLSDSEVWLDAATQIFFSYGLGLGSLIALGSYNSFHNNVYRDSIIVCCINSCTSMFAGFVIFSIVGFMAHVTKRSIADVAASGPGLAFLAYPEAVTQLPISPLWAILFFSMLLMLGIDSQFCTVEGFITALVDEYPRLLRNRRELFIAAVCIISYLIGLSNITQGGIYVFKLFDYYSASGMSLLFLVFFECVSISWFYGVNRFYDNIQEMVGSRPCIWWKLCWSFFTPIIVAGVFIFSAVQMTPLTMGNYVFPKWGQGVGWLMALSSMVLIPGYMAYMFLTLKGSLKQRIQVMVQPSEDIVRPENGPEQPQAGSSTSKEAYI
Sequence of P-glycoprotein (PgP) (P08183 whole entry): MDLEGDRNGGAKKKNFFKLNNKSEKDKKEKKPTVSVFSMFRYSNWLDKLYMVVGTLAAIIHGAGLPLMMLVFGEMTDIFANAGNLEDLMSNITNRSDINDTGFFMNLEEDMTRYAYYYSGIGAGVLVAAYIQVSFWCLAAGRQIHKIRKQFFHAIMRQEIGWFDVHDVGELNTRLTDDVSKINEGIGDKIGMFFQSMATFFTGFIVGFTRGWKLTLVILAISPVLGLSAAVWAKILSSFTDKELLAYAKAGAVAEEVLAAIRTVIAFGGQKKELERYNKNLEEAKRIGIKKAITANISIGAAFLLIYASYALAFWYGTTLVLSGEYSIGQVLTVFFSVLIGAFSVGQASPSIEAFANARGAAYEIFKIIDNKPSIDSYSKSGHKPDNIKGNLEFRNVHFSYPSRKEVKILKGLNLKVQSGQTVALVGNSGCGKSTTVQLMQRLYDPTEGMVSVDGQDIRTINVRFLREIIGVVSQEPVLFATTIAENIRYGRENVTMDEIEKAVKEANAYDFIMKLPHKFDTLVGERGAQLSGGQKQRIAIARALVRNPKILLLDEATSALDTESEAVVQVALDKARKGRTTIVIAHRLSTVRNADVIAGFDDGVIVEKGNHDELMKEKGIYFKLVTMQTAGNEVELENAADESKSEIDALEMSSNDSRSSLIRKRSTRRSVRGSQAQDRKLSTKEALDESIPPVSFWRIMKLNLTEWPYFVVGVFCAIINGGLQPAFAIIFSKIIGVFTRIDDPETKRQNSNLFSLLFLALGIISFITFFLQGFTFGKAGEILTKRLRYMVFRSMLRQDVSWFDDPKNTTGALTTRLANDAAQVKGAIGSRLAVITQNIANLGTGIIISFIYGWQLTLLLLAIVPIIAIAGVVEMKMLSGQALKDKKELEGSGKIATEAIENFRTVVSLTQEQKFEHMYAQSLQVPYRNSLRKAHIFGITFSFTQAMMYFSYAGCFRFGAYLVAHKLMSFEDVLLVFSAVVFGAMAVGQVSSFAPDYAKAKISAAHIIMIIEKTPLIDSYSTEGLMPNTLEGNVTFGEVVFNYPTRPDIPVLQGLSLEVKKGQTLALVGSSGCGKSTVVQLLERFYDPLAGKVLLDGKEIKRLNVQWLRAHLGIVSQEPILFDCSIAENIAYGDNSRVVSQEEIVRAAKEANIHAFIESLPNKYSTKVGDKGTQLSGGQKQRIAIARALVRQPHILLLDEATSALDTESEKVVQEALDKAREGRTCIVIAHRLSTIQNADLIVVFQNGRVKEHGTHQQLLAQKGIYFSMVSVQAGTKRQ

Question: For `Cc1ccsc1C(=CCCN1CCC[C@@H](C(=O)O)C1)c1sccc1C` [tiagabine, (R)-1-[4,4-bis(3-methyl-2-thienyl)-3-butenyl]-3-piperidinecarboxylic acid], which Average plasma concentration [1] is on record?
Answer: Its Average plasma concentration is 385 ± 70 µg/L.

Question: And the Elimination half-life [2]?
Answer: The Elimination half-life was 7.3 h.

Question: And the “Plasma concentration peak value” [2]?
Answer: Its value is 552 ng/mL.

Question: And the “Selectivity for GAT-1” value [3]?
Answer: Its value is “excellent selectivity for GAT-1”.

Question: And the “Effect on GABA in brain” value [4]?
Answer: Its value is “increase GABA”.

Question: Which “Affinity” value [5] does the source give for `CCOC(=O)c1ncn2c1CN([11CH3])C(=O)c1cc(N=[N+]=[N-])ccc1-2` [[^11C]Ro15-4513] here?
Answer: Its value is “high affinity”.

Question: With `O=C(O)C1CCCN(CCC=C(c2ccccc2[18F])c2ccccc2Cl)C1` (stereo not shown) [^18F-GATT-39] as the compound, how does the Free fraction [6] read?
Answer: Its Free fraction is 10.5 ± 1.0%.

Question: And the Parent compound ([7]; 30 min)?
Answer: The Parent compound was 95 ± 4%.

Question: And the Parent compound ([7]; 90 min)?
Answer: The Parent compound was 85 ± 9%.

Question: And the “K1 values” ([8]; 1TCM influx constant)?
Answer: Its value is “especially low”.

Question: And the “Median VT across ROIs” value [8, 11]?
Answer: Its value is 0.9 mL/cm^3.

Question: And the “Median VT across ROIs” value ([8]; baseline)?
Answer: Its value is 1.6 mL/cm^3.

Question: With `Cc1ccccc1C(=COCCN1CCCC(C(=O)O)C1)c1ccccc1[18F]` (stereo not shown) [^18F-GATT-31] as the compound, how does the Free fraction [6] read?
Answer: The Free fraction was 12.4 ± 1.8%.

Question: What about the Parent compound ([7]; 30 min) of the same compound?
Answer: Its Parent compound is 87 ± 3%.

Question: What about the Parent compound ([7]; 90 min) of the same compound?
Answer: The Parent compound was 76 ± 6%.

Question: And the Parent compound ([7]; 180 min)?
Answer: Its Parent compound is 63% and 63 ± 11%.

Question: What about the “Median VT across ROIs” value [8, 11] of the same compound?
Answer: Its value is 1.5 mL/cm^3.

Question: What about the “Median VT across ROIs” value ([8]; baseline) of the same compound?
Answer: Its value is 2.8 mL/cm^3.

Question: And the VND ([9]; monkey 1)?
Answer: The VND was 0.31 mL/cm^3.

Question: And the VND ([9]; monkey 2)?
Answer: The VND was −0.61 mL/cm^3 and −0.61 ^* mL/cm^3.

Question: And the VND ([9]; monkey 3)?
Answer: The VND was 1.02 mL/cm^3.

Question: And the Occupancy ([9]; monkey 1)?
Answer: Its Occupancy is 69%.

Question: And the Occupancy ([9]; monkey 2)?
Answer: Its Occupancy is 22%.

Question: What about the Occupancy ([9]; monkey 3) of the same compound?
Answer: Its Occupancy is 70%.

Question: And the “Efflux by PgP (category)” value [10]?
Answer: The value was “low efflux by PgP”.

Question: What does the source list for `Cc1ccccc1C(=COCCN1CCCC(C(=O)O)C1)c1ccc([18F])cc1` (stereo not shown) [^18F-GATT-34]?
Answer: Free fraction [6]: 10.8 ± 0.4%; Parent compound ([7]; 30 min): 91 ± 2%; Parent compound ([7]; 90 min): 83 ± 2%; Median VT across ROIs [8, 11]: 1.3 mL/cm^3; Median VT across ROIs ([8]; baseline): 1.5 mL/cm^3; Blocking effect of tiagabine on VT ([8]; tiagabine 0.5 mg/kg): small
